According to patent US12668589B2, “N-formamidopyrazoline derivative as P2X3 receptor antagonist and use thereof” (HANGZHOU WESTAN PHARMACEUTICAL TECHNOLOGY CO., LTD, priority 2020, dated 2026):

Key:
taste of SD rats = test: Rat taste test (quinine water / tap water drinking); assay type: in vivo; conditions: 10 mg/kg intraperitoneal injection; for Water drinking amount, Tap water: free drinking 15 minutes, amounts measured to the nearest 0.1 mL; for Water drinking amount, Sum: tap plus quinine water; for Water drinking amount, Sum / Water drinking amount, Quinine: 15 minutes, measured to the nearest 0.1 mL; for Water drinking amount, Quinine: water with 0.3 mM quinine hydrochloride
Experimental: Experimental purpose: to observe an effect of title compounds on taste of SD rats.
• 1.1) Animals and grouping: 40 male SD rats, with about 300 grams per rat. […] A bottle of normal drinking water and a bottle of drinking water containing 0.3 mM quinine hydrochloride were placed in each cage at the same time, and left and right positions where the two bottles of water were placed in all animal feeding cages were the same. After the animals were allowed to freely drink water for 15 minutes, drinking amounts of the two bottles of water were measured respectively to the nearest 0.1 mL. • 1.5) Data statistics: drinking amounts of quinine bitter water and tap water and a total water drinking amount thereof as well as a percentage of quinine water in the total water drinking amount were counted respectively. Water drinking amounts of the bitter water of animals in each group were compared. Whether differences between groups were significant was compared by analysis of variance. 2) Experimental Results

human PAR-1 = biological target: T1, human PAR-1 (Homo sapiens, UniProt P25116); test: Inhibitory activity against PAR-1, calcium ion flux fluorescence method (FLIPR); assay type: cell-based; conditions: HEK293/Ga15 cells expressing human PAR-1, TFLLR-NH2 10 μM, starting concentration 30 μM
T1 construct: host or cells: HEK293/Ga15 recombinant cell line
T1 sequence (P25116 22-425): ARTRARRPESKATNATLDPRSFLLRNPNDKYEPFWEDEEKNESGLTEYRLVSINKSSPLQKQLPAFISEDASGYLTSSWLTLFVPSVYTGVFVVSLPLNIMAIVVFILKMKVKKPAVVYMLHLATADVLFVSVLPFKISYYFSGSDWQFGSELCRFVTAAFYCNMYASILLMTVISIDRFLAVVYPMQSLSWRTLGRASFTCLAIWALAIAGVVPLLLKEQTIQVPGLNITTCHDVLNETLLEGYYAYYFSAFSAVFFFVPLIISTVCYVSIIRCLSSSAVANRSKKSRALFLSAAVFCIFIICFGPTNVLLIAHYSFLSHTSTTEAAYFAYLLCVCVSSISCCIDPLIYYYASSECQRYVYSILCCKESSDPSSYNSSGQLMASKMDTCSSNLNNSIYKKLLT
Experimental: The inhibitory activity of the title compounds against human PAR-1 was determined by a calcium ion flux fluorescence method (an FLIPR method). The method thereof was reported in the literature of Zhong et al. [Zhong et al. J Biomol Struct Dyn, 2017, 35(13):2853].
An HEK293/Ga15 recombinant cell line (HD Biosciences, Shanghai, China) stably expressing human PAR-1 was cultured in a DMEM (Thermo Fisher Scientific, Shanghai) culture solution (containing 10% calf serum, 800 μg/mL G418). Incubator conditions were 37° C. and an air humidity with 5% CO2.
On the first day, 20 μL per well of PAR-1 cells at a concentration of 4E+5 cells/mL were seeded in a 384-well analysis plate (Corning 3712). […] On the second day, a culture solution in each well was poured off. Then, 20 μL of 1×loading dye (2 μM Fluo-8 AM in 1×HBSS with 20 mM HEPES, 1 mM Probenecid, 0.025% Pluronic F-127 assay buffer) was added in each well. The cell analysis plate was cultured for 1 hour at a room temperature.
The compounds were dissolved into 100% DMSO to prepare a 10 mM stock solution, which was stored at −20° C. On the day of use, the compound stock solution was thawed at a room temperature. Each compound was subjected to 1:3 serial dilution at 11 concentration points with a DMEM culture solution with a starting concentration of 30 μM. Each compound was subjected to double dilution for testing. A positive control compound was diluted in the same way with SCH79797 with a starting concentration of 30 μM.
The cell analysis plate was placed in a FLIPR instrument (Molecular Device) and 10 μL of compounds (3× of a final concentration) in a compound plate was added to corresponding wells of the cell analysis plate. After 10 minutes, 10 μL of TFLLR-NH2 (TFA) (a final concentration of 10 μM) was added to each well to stimulate generation of intracellular calcium flux signals. Ca^++-dependent fluorescence signals were continuously monitored at excitation wavelengths of 470/495 nm and emission wavelengths of 515/575 nm to analyze the inhibitory activity of the compounds.
Data were collected and analyzed by using an FLIPR program. The inhibitory (or agonistic) activity of the compounds at each concentration was assessed by fluorescence peaks. IC50 values of the compounds were calculated by using EXCEL and PRISM programs.

Water drinking amount, Tap water (taste of SD rats) | Water drinking amount, Sum (taste of SD rats) | Water drinking amount, Quinine (taste of SD rats) | IC50 (human PAR-1) [µM] | Compound
11.84 | 13.87 | 2.03 | > 30 | CCOC(=O)N(C)[C@H]1CN(C(=O)N[C@H](C)c2cnc(C(F)(F)F)nc2)N=C1c1ccc(C)cc1 [Compound 4, (S)-4-(N-methyl-N-ethoxycarbonylamino)-3-(4-methylphenyl)-N-((R)-1-(2-(trifluoromethyl)pyrimidin-5-yl)ethyl)-4,5-dihydro-1H-pyrazol-1-carboxamide]
12.26 | 14.13 | 1.87 | > 30 | Cc1ccc(C2=NN(C(=O)N[C@H](C)c3ccc(C(F)(F)F)nc3)C[C@@H]2N2CCOC2=O)cc1 [Compound 22]
